These results are taken from ChEMBL document CHEMBL3044961, “Rapid synthesis, characterization, anticancer and antimicrobial activity studies of substituted thiadiazoles and their dinucleating ligand metal complexes” (Med Chem Res, 2012).

Active and inactive are the calls of the source. The calls are words filed in the database; no cut-off is given here.

For orientation: IC50 means the midpoint of a concentration-inhibition curve.

The test system of test [1] is Pectobacterium carotovorum. Description: Antibacterial activity against Pectobacterium carotovorum at 1 ug/ml after 24 hr by well diffusion method. It counts as functional. Particulars: for zone of inhibition at 1 µg/mL: read-out: IZ. Background: Agar diffusion results depend on both activity and mobility in agar.
The next test concerns Proteus vulgaris. The test is described as follows: Antibacterial activity against Proteus vulgaris at 1 ug/ml after 24 hr by well diffusion method. It is filed as functional. The settings on record: for zone of inhibition at 1 µg/mL: read-out: IZ.
The next test has as its system Bacillus subtilis. The test is described as follows: Antibacterial activity against Bacillus subtilis at 1 ug/ml after 24 hr by well diffusion method. It counts as functional. The settings on record: read-out: IZ.
In a further test the test system is Klebsiella pneumoniae. The test is described as follows: Antibacterial activity against Klebsiella pneumoniae at 1 ug/ml after 24 hr by well diffusion method. It is filed as functional. The settings on record: read-out: IZ.
The test system of the next test is U-937. Description: Cytotoxicity against Homo sapiens (human) U937 cells after 96 hr by MTT assay. It is filed as functional, cell-based. (In general: Formazan colour is commonly taken as a measure of viable cells.)
The next test has as its system Streptococcus faecalis. The test is described as follows: Antibacterial activity against Streptococcus faecalis at 1 ug/ml after 24 hr by well diffusion method. Particulars: read-out: IZ.
The subject of a further test is Micrococcus luteus. Description: Antibacterial activity against Micrococcus luteus at 1 ug/ml after 24 hr by well diffusion method. It counts as functional. Particulars: for zone of inhibition at 1 µg/mL: read-out: IZ.
The subject of the next test is Enterococcus faecalis. The test is described as follows: Antibacterial activity against Enterococcus faecalis at 1 ug/ml after 24 hr by well diffusion method. It is filed as functional. The settings on record: for zone of inhibition at 1 µg/mL: read-out: IZ.
The next test concerns Escherichia coli. The test is described as follows: Antibacterial activity against Escherichia coli at 1 ug/ml after 24 hr by well diffusion method. The settings on record: read-out: IZ. It counts as functional.
The next test has as its system HL-60. Description: Cytotoxicity against Homo sapiens (human) HL60 cells after 96 hr by MTT assay. It counts as functional, cell-based.
The subject of another test is Rhizoctonia solani. Description: Antifungal activity against Rhizoctonia solani at 1 ug/ml after 48 hr by well diffusion method. It is filed as functional. The settings on record: for zone of inhibition at 1 µg/mL: read-out: IZ.
The next test relates to Penicillium expansum. Description: Antifungal activity against Penicillium expansum at 1 ug/ml after 48 hr by well diffusion method. It counts as functional. Particulars: read-out: IZ.
In the next test the test system is Aspergillus flavus. The test is described as follows: Antifungal activity against Aspergillus flavus at 1 ug/ml after 48 hr by well diffusion method. It counts as functional. Particulars: read-out: IZ.
Another test relates to Lasiodiplodia theobromae. Description: Antifungal activity against Lasiodiplodia theobromae at 1 ug/ml after 48 hr by well diffusion method. It counts as functional. The settings on record: for zone of inhibition at 1 µg/mL: read-out: IZ.
[2] abbreviates: Homo sapiens, HL-60, 96 h, read-out: IC50.
Setting [3] is: Homo sapiens, U-937, 96 h, read-out: IC50.

In the case of `Cc1nnc(NN=C(C#N)C#N)s1`, the “inhibition zone (IZ)” value (in test [1]; in the test with Rhizoctonia solani) was “inactive” each time. Further, the zone of inhibition at 1 µg/mL with Proteus vulgaris is 10 mm; with Bacillus subtilis, 10 mm; with Klebsiella pneumoniae, 8 mm; in the test on Streptococcus faecalis, 6 mm; in the test with Micrococcus luteus it was 7 mm; in the test with Enterococcus faecalis, 9 mm. The zone of inhibition at 1 µg/mL stood at 6 mm in the test with Escherichia coli, 15 mm in the test with Penicillium expansum, 12 mm in the test with Aspergillus flavus and 8 mm in the test with Lasiodiplodia theobromae. Moreover, the figures for the IC50 result in the test on U-937 (u-937) and in the test with HL-60 (setting [2]) were “Not Active” and 28.1 µM, respectively.

Take `CC(=O)C(=NNc1nnc(C)s1)C(C)=O`: the zone of inhibition at 1 µg/mL in test [1] turned out to be 6 mm; in the test with Proteus vulgaris, 7 mm; with Bacillus subtilis, 7 mm; with Klebsiella pneumoniae, 8 mm; in the test with Streptococcus faecalis it was 7 mm; in the test with Enterococcus faecalis, 8 mm. Moreover, the zone of inhibition at 1 µg/mL was determined as 8 mm in the test with Escherichia coli; 4 mm in the test with Rhizoctonia solani; 18 mm in the test on Penicillium expansum; 12 mm in the test on Aspergillus flavus; 6 mm in the test with Lasiodiplodia theobromae. In addition, the IC50 with U-937 (setting [3]) was determined as 24.7 µM; in the test with HL-60 (setting [2]) it was 23 µM. In the test on Micrococcus luteus, the “inhibition zone (IZ)” value is “inactive”.

Regarding `CC1(C)S[C@@H]2[C@H](NC(=O)[C@H](N)c3ccccc3)C(=O)N2[C@H]1C(=O)O` [AMPICILLIN], the zone of inhibition at 1 µg/mL in test [1] stood at 31 mm; with Proteus vulgaris, 33 mm; in the test on Bacillus subtilis, 30 mm; in the test with Klebsiella pneumoniae, 29 mm; in the test with Streptococcus faecalis, 30 mm; with Micrococcus luteus, 32 mm. In addition, the zone of inhibition at 1 µg/mL is 28 mm with Escherichia coli, 29 mm with Rhizoctonia solani, 35 mm with Penicillium expansum and 31 mm with Aspergillus flavus. For the same compound, the “inhibition zone (IZ)” value in the test on Enterococcus faecalis and in the test on Lasiodiplodia theobromae was “inactive” in each case.

`CCOC(=O)/C(C#N)=N/Nc1nnc(CC)s1`: the “inhibition zone (IZ)” value (in test [1]; with Proteus vulgaris; with Rhizoctonia solani) was “inactive” each time. For the same compound, the zone of inhibition at 1 µg/mL in the test with Bacillus subtilis amounted to 9 mm; with Klebsiella pneumoniae it was 7 mm; in the test on Streptococcus faecalis, 5 mm; in the test with Micrococcus luteus it was 6 mm; in the test on Enterococcus faecalis, 6 mm; in the test with Escherichia coli, 9 mm. The zone of inhibition at 1 µg/mL with Penicillium expansum was 16 mm; in the test on Aspergillus flavus it was 12 mm; in the test with Lasiodiplodia theobromae it was 10 mm.

Consider `CCc1nnc(NN=C(C#N)C#N)s1`, for which the zone of inhibition at 1 µg/mL was found to be 7 mm in [1]; 11 mm in the test on Bacillus subtilis; 7 mm in the test on Klebsiella pneumoniae; 8 mm in the test with Streptococcus faecalis; 6 mm with Micrococcus luteus; 7 mm in the test with Enterococcus faecalis. Moreover, the zone of inhibition at 1 µg/mL in the test with Escherichia coli worked out at 9 mm; with Penicillium expansum, 16 mm; in the test with Aspergillus flavus it was 12 mm; in the test with Lasiodiplodia theobromae it was 15 mm. Also, the “inhibition zone (IZ)” value in the test on Proteus vulgaris and in the test with Rhizoctonia solani was “inactive” throughout.

As to `O=c1[nH]cc(F)c(=O)[nH]1` [FLUOROURACIL], the results for the half-maximal inhibitory concentration (IC50) in the test with U-937 (setting [3]) and with HL-60 (setting [2]) were 4.7 µM and 266 µM, respectively.

With `O=NN(CCCl)C(=O)NCCCl` [CARMUSTINE], the IC50 in the test on U-937 (setting [3]) was 12.3 µM; in the test with HL-60 (setting [2]), 30.5 µM.

In the case of `CCOC(=O)/C(C#N)=N/Nc1nnc(C)s1`, the “inhibition zone (IZ)” value (in test [1]; with Micrococcus luteus; in the test with Rhizoctonia solani) was “inactive” in each case. Also, the zone of inhibition at 1 µg/mL with Proteus vulgaris came out at 8 mm; with Bacillus subtilis it was 8 mm; in the test with Klebsiella pneumoniae it was 7 mm; with Streptococcus faecalis it was 6 mm; with Enterococcus faecalis, 7 mm; in the test with Escherichia coli, 7 mm. Besides, the zone of inhibition at 1 µg/mL with Penicillium expansum stood at 17 mm; with Aspergillus flavus, 11 mm; in the test with Lasiodiplodia theobromae it was 7 mm. Moreover, the IC50 turned out to be 19.3 µM in the test on U-937 (setting [3]) and 22.1 µM with HL-60 (setting [2]).

Take `NC(=O)NO` [HYDROXYUREA]: the IC50 result in the test with HL-60 (hl-60) is given as “Not Active”.

For the compound `CCc1nnc(NN=C(C(C)=O)C(C)=O)s1`, the zone of inhibition at 1 µg/mL is 7 mm in test [1]; 6 mm with Proteus vulgaris; 8 mm with Bacillus subtilis; 5 mm in the test with Klebsiella pneumoniae; 8 mm with Streptococcus faecalis; 8 mm in the test with Micrococcus luteus. Besides, the zone of inhibition at 1 µg/mL is 8 mm in the test on Enterococcus faecalis; 8 mm in the test with Escherichia coli; 6 mm in the test with Rhizoctonia solani; 14 mm in the test on Penicillium expansum; 10 mm in the test on Aspergillus flavus; 7 mm in the test on Lasiodiplodia theobromae.
